Here are results for 3 compounds from article PMC7368294 (Proceedings of the National Academy of Sciences of the …, 2020).

For experiment [1], the target named is Dα1/Dα2/Dβ1/Dβ2 nAChR (Drosophila melanogaster, UniProt P04755+P09478+P17644+P25162). The experiment can be described thus: cell-based. Also on record: species or system Xenopus laevis oocytes. The settings on record: Oocyte.
Experiment [2] deals with T1, Dα1/Dα2/Dβ1 nAChR (Drosophila melanogaster, UniProt P04755+P09478+P17644).
T1 sequence (P09478 22-567): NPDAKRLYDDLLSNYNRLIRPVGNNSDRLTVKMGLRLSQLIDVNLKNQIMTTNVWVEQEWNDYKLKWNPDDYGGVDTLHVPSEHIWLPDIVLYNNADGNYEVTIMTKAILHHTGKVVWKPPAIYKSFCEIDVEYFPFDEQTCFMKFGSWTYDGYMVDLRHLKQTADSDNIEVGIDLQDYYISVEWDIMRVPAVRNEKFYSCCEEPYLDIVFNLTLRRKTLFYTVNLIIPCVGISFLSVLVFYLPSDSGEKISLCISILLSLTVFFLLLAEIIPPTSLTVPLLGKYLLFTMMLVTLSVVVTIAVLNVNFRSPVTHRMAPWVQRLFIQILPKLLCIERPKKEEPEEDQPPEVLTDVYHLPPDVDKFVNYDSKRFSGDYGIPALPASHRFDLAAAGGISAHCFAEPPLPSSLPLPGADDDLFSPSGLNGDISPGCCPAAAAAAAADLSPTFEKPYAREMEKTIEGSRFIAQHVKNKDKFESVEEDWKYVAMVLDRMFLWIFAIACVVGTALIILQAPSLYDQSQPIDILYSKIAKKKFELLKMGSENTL
T1 sequence (P17644 22-576): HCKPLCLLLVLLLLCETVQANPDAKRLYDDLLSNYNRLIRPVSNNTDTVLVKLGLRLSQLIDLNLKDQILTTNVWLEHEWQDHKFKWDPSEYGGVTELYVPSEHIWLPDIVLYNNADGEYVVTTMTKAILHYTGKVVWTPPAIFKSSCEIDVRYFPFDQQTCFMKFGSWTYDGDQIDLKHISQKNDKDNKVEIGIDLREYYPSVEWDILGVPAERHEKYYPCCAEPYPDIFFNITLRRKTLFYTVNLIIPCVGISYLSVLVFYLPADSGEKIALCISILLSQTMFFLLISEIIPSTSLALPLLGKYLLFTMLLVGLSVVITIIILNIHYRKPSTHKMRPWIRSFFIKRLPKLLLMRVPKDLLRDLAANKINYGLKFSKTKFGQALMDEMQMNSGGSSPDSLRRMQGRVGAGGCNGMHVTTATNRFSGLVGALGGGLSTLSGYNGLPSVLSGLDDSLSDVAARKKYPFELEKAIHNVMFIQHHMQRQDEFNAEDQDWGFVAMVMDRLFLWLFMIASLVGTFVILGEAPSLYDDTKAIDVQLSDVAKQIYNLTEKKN
T1 sequence (P04755 25-521): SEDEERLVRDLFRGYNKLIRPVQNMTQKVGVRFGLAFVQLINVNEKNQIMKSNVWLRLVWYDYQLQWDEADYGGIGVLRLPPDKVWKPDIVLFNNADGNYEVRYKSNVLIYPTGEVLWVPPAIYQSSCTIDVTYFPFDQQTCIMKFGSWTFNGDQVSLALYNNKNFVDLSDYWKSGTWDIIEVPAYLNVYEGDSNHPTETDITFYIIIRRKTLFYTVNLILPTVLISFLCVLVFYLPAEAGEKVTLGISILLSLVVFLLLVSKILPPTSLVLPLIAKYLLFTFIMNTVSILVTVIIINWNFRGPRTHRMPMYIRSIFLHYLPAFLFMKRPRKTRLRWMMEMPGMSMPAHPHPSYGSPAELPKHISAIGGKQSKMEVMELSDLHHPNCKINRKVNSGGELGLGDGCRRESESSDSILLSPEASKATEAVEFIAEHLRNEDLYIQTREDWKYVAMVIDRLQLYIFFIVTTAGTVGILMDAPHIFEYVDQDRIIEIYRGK
The experiment can be described thus: cell-based. Also on record: species or system Xenopus laevis oocytes. The settings on record: Oocyte.

Where two headings read alike, the source gives them in different places.

Take `CN/C(=N\[N+](=O)[O-])NCc1cnc(Cl)s1` [clothianidin]: the Emax in experiment [1] (read-out: Clothianidin / Imax / ND) stood at 82.1 ± 1.7%; in experiment [2] (read-out: Clothianidin / Imax), 46.7 ± 2.1%.

As to `O=[N+]([O-])NC1=NCCN1Cc1ccc(Cl)nc1` [imidacloprid], the Emax in experiment [1] (read-out: Imidacloprid / Imax) was 59.2 ± 3%; in experiment [2] (read-out: Imidacloprid / Imax) it was 4.6 ± 0.4%.

In the case of `N#C/N=C1\SCCN1Cc1ccc(Cl)nc1` [thiacloprid], the Emax amounted to 45.4 ± 1.9% in experiment [1] (read-out: Thiacloprid / Imax) and 2 ± 0.2% in experiment [2] (read-out: Thiacloprid / Imax).
